Laboratory results as given in the supplement of paper PMC12076712.

Columns and labels:
Experiment in all cases: pIC50, kinobeads binding competition
PHKG2 = target: T1, PHKG2 (UniProt P15735)
T1 sequence (whole entry): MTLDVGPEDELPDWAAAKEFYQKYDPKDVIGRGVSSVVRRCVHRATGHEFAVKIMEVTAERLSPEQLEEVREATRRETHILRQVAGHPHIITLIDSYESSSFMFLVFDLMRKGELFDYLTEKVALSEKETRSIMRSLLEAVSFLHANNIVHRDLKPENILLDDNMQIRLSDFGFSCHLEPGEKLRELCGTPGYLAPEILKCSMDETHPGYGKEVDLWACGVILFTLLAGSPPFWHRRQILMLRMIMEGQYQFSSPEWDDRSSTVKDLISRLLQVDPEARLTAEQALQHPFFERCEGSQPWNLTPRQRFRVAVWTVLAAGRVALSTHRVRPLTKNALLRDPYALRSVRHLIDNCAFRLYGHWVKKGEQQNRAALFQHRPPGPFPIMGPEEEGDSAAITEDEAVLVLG
In short: (§1)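 Live Jurkat cells were treated with nine compound concentrations (top 30 μM, 1:4 steps) or DMSO for 60 min at 37 °C before lysis. Alternatively, Jurkat lysate or a 1:1:1:1 HEK293/K-562/HepG2/placenta lysate mix was incubated with nine concentrations (top 30 μM, 1:5 steps) for 60 min at 4 °C. Kinobeads-bound proteins were digested and quantified by TMT10 LC-MS/MS. pIC50 came from logistic dose-response fits (R drc package) of fold changes versus DMSO, in biological duplicates.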

PRKG1 = target: T2, PRKG1 (UniProt Q13976); conditions: cell material: Lysate mix
T2 sequence (whole entry): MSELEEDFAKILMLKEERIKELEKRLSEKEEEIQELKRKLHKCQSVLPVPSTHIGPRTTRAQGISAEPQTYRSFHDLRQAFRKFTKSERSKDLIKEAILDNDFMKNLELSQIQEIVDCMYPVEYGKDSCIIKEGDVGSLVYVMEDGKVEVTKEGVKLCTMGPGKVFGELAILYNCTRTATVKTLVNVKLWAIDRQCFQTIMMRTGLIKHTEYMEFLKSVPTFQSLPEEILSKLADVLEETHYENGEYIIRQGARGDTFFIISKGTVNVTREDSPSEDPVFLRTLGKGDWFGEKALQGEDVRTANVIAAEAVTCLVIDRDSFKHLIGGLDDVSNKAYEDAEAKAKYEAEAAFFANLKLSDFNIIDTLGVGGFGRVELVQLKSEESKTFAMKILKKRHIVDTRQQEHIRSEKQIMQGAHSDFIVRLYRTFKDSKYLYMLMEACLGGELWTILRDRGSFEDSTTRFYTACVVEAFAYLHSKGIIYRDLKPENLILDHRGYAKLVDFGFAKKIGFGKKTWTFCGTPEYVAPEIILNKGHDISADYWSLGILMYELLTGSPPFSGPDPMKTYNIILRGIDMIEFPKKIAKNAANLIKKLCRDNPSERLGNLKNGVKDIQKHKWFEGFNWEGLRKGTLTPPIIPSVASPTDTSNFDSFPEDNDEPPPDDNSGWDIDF
In short: as §1

STK35 = STK35 (UniProt Q8TDR2)
Chain of STK35 (Q8TDR2 whole entry): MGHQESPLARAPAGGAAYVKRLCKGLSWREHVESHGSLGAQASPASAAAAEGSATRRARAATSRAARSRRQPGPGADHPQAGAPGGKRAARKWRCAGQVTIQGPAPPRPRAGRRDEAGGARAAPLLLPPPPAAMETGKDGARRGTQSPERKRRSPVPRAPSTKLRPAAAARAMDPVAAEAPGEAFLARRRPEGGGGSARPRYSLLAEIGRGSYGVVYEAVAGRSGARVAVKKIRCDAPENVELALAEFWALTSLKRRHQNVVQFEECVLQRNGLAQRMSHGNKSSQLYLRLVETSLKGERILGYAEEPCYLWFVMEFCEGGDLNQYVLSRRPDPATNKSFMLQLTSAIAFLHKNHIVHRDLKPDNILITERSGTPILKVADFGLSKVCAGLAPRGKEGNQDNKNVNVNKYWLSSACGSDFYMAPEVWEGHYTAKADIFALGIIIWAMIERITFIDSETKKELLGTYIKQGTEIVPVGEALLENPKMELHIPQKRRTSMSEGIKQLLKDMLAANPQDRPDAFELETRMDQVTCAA
In short: as §1

UniProt P78356 = target: T3, UniProt P78356
T3 sequence (whole entry): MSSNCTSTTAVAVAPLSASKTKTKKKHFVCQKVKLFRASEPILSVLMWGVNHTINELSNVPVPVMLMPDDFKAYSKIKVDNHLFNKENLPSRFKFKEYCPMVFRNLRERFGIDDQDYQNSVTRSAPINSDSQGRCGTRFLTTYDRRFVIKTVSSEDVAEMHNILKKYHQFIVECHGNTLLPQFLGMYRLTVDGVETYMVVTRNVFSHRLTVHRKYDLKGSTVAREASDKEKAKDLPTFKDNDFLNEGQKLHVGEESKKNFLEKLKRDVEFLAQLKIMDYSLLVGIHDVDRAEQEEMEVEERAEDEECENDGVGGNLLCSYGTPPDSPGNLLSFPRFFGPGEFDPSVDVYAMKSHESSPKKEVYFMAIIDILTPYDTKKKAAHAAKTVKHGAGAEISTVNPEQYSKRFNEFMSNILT
In short: as §1

UniProt Q15139 = target: T4, UniProt Q15139; conditions: cell material: Lysate mix
T4 sequence (whole entry): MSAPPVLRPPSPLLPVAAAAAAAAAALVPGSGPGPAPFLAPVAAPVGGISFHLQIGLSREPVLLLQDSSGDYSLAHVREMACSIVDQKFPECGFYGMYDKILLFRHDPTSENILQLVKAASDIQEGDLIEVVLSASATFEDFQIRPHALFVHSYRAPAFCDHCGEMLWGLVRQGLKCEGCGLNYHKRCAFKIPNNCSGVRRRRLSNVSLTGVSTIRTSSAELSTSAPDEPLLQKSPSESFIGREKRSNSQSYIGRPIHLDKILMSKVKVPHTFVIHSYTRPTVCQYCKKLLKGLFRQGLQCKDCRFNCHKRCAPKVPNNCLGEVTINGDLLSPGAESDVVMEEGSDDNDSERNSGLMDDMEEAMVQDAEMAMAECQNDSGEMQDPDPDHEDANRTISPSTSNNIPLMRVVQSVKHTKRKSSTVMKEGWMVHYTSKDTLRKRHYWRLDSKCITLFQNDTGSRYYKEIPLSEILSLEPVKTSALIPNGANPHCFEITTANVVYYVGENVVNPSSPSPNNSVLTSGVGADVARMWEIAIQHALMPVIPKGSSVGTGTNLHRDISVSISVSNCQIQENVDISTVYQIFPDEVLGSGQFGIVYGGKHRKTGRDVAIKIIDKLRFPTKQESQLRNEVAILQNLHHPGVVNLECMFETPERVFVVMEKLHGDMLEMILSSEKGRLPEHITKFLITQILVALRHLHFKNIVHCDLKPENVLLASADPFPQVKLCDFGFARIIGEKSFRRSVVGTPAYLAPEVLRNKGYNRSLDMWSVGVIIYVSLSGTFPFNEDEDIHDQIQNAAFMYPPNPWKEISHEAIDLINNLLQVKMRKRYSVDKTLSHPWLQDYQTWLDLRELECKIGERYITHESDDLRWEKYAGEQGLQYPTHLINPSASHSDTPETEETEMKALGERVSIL
In short: as §1

UniProt Q5VT25 = target: UniProt Q5VT25
Chain of UniProt Q5VT25 (Q5VT25 whole entry): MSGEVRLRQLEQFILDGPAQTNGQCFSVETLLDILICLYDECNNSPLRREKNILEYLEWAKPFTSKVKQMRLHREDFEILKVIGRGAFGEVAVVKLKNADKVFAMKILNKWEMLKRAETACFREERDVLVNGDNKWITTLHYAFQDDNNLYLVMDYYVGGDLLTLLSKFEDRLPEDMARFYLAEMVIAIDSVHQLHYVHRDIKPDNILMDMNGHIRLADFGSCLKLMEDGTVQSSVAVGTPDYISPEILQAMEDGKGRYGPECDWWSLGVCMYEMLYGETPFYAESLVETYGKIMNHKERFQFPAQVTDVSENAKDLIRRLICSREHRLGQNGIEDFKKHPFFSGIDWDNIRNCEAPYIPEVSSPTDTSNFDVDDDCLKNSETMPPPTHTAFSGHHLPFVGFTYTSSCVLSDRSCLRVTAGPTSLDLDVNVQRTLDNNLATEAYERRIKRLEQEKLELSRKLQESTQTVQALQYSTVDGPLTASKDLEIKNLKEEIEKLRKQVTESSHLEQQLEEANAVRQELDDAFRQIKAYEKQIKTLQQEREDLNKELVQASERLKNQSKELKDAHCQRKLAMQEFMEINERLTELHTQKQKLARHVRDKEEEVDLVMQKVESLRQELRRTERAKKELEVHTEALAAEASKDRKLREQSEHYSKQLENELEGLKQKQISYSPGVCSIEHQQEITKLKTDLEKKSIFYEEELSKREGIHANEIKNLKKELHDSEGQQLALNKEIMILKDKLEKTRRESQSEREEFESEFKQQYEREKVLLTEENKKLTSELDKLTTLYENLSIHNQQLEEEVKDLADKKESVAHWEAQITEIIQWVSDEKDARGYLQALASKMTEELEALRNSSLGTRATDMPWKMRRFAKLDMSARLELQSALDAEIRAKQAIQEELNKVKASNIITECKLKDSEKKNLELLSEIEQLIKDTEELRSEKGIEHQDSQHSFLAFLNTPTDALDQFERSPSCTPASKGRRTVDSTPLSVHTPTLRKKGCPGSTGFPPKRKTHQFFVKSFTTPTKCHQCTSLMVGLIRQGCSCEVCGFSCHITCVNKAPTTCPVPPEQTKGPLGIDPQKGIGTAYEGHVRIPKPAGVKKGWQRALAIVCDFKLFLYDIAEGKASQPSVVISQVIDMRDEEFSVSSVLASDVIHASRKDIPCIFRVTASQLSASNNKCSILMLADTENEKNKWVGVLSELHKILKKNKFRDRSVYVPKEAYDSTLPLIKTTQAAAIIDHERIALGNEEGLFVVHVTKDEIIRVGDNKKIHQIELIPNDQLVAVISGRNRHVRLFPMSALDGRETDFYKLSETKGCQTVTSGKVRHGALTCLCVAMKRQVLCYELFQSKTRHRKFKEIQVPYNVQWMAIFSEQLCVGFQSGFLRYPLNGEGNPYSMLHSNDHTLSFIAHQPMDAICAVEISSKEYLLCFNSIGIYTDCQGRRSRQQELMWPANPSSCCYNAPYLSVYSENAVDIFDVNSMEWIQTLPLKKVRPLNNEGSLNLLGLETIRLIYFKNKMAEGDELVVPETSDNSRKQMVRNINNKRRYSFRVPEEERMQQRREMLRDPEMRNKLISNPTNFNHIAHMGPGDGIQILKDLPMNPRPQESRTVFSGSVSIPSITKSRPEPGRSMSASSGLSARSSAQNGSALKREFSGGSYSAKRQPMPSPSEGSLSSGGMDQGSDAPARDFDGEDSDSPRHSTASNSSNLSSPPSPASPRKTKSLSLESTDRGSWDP
In short: as §1

UniProt Q9Y2K2 = target: UniProt Q9Y2K2
Chain of UniProt Q9Y2K2 (Q9Y2K2 whole entry, looked up): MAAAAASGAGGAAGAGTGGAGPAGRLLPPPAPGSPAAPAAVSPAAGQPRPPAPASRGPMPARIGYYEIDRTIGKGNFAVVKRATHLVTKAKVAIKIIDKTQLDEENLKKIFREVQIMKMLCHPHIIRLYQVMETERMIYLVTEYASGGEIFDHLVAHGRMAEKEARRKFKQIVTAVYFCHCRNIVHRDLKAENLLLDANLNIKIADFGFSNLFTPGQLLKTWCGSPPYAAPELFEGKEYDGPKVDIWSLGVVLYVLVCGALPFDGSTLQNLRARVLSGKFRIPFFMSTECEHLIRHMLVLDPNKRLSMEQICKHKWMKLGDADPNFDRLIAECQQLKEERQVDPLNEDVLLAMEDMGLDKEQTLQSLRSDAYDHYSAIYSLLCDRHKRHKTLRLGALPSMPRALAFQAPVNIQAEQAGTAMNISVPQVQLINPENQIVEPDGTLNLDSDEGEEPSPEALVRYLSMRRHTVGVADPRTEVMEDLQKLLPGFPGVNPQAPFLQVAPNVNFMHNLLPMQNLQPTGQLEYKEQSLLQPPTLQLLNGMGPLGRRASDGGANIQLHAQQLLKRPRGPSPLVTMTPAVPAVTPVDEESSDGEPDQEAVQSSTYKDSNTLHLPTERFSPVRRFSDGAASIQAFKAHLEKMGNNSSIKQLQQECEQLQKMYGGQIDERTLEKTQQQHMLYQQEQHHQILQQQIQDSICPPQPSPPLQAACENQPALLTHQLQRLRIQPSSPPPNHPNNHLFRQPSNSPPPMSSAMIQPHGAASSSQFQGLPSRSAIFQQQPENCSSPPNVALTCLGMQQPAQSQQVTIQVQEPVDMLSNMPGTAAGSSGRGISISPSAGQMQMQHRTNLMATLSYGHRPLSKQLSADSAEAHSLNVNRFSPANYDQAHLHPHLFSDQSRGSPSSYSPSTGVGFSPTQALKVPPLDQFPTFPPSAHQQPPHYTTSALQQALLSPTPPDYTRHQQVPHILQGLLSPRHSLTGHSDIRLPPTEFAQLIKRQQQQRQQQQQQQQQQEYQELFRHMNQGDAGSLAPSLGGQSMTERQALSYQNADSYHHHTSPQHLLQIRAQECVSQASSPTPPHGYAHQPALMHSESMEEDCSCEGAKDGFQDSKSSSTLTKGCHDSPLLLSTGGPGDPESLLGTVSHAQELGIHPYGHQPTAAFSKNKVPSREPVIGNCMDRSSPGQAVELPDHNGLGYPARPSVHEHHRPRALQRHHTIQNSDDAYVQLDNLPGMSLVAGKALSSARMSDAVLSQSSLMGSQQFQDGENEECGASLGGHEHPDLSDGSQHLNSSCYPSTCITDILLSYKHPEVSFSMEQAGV
In short: as §1

SMILES	pIC50 (PHKG2; cell material: Jurkat cells)	pIC50 (PHKG2; cell material: Jurkat lysate)	pIC50 (PHKG2; cell material: Lysate mix)	pIC50 (PRKG1)	pIC50 (STK35; cell material: Jurkat cells)	pIC50 (STK35; cell material: Jurkat lysate)	pIC50 (STK35; cell material: Lysate mix)	pIC50 (UniProt P78356; cell material: Jurkat lysate)	pIC50 (UniProt P78356; cell material: Lysate mix)	pIC50 (UniProt Q15139)	pIC50 (UniProt Q5VT25; cell material: Jurkat cells)	pIC50 (UniProt Q5VT25; cell material: Jurkat lysate)	pIC50 (UniProt Q5VT25; cell material: Lysate mix)	pIC50 (UniProt Q9Y2K2; cell material: Jurkat cells)	pIC50 (UniProt Q9Y2K2; cell material: Jurkat lysate)	pIC50 (UniProt Q9Y2K2; cell material: Lysate mix)
O=C(NCCNC(=O)c1cc(Nc2cc(C3CC3)[nH]n2)nc(N2CCN(Cc3ccc(S(=O)(=O)F)cc3)CC2)n1)OC1CC/C=C/CCC1 (centres undefined)	< 4.52	< 4.52	< 4.52	< 4.52	6.88	5.19	5.2	< 4.52	< 4.52	< 4.52	< 4.52	< 4.52	< 4.52	< 4.52	< 4.52	< 4.52
Cc1cc(Nc2cc(C(=O)NCCNC(=O)OC3CC/C=C/CCC3)nc(N3CCN(Cc4ccc(S(=O)(=O)F)cc4)CC3)n2)n[nH]1 (centres undefined)			< 4.52	< 4.52			4.91		< 4.52	< 4.52			< 4.52			< 4.52
CCNC(=O)c1cc(Nc2cc(C3CC3)[nH]n2)nc(N2CCN(Cc3ccc(S(=O)(=O)F)cc3)CC2)n1			< 4.52	< 4.52			6.58		< 4.52	< 4.52			< 4.52			< 4.52
CCNC(=O)c1cc(Nc2cc(C)[nH]n2)nc(N2CCN(Cc3ccc(S(=O)(=O)F)cc3)CC2)n1			< 4.52	< 4.52			6.51		< 4.52	< 4.52			< 4.52			< 4.52
C#CCNC(=O)c1cc(Nc2cc(C3CC3)[nH]n2)nc(N2CCN(Cc3ccc(S(=O)(=O)F)cc3)CC2)n1	5.16	< 4.52	< 4.52	< 4.52	6.96	6.1	6.96	< 4.52	< 4.52	< 4.52	5.28	< 4.52	< 4.52		< 4.52	< 4.52
C#CCNC(=O)c1cc(Nc2cc(C)[nH]n2)nc(N2CCN(Cc3ccc(S(=O)(=O)F)cc3)CC2)n1			< 4.52	< 4.52			6.01		< 4.52	< 4.52			< 4.52			< 4.52
